Source: the NIST ThermoML archive (doi:10.1021/je034076x)
Numbers after ± are expanded uncertainties.

Settings: 101.33 kPa, Liquid; for viscosity: Capillary tube (Ostwald / Ubbelohde) method; for speed of sound: Pulse-echo method; for mass density: Vibrating tube method

viscosity (283.15 K) [mPa·s] | speed of sound (283.15 K) [m/s] | mass density (283.15 K) [kg/m3] | viscosity (298.15 K) [mPa·s] | speed of sound (298.15 K) [m/s] | mass density (298.15 K) [kg/m3] | viscosity (313.15 K) [mPa·s] | speed of sound (313.15 K) [m/s] | mass density (313.15 K) [kg/m3] | Compound
0.5438 ± 0.0055 | 1348.8 ± 1.2 | 898.62 ± 0.47 | 0.4645 ± 0.0048 | 1279 ± 1.2 | 882.18 ± 0.46 | 0.3992 ± 0.0043 | 1204.8 ± 1.2 | 865.95 ± 0.45 | C1CCOC1 [tetrahydrofuran]
2.694 ± 0.02 | 872.7 ± 0.5 | 1408.1 ± 0.3 | 1.755 ± 0.013 | 833.2 ± 0.5 | 1382.56 ± 0.28 | 1.208 ± 0.0095 | 793.3 ± 0.5 | 1356.89 ± 0.27 | OCC(F)(F)F [2,2,2-trifluoroethanol]
